From article PMC6142691, “Cannabidiol enhances morphine antinociception, diminishes NMDA-mediated seizures and reduces stroke damage via the sigma 1 receptor” (Molecular Brain, 2018) come the findings set out here.

Experiment [1] addresses T1, sigma 1 receptor (σ1R) (Mus musculus, UniProt O55242). The experiment can be described thus: biochemical. Also on record: gene Sigmar1.
Experiment [2] deals with T1, sigma 1 receptor (σ1R). The experiment can be described thus: in vitro pull-down: reversal of progesterone/CBD-induced disruption of recombinant σ1R-NR1 complex. The format is biochemical. Also on record: gene Sigmar1; murine full-length (1–223) σ1R, recombinant from E. coli, GST-free; with NMDAR NR1 subunit C-terminal region (residues 827–938).
The target in experiment [3] is T1, sigma 1 receptor (σ1R). In words: in vitro pull-down: disruption of recombinant σ1R-NR1 complex, immunoblot. The format is binding. Also on record: gene Sigmar1; murine full-length (1–223) σ1R, recombinant from E. coli, GST-free; with NMDAR NR1 subunit C-terminal region (residues 827–938).

Each structure is given as a SMILES string.

T1 sequence (O55242 whole entry, the tested form may be a part): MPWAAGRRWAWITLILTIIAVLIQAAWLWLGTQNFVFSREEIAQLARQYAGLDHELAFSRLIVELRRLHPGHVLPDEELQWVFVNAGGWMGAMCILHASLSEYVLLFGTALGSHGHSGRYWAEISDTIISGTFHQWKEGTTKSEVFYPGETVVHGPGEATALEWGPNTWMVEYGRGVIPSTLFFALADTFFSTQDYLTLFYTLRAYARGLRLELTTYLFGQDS
T1 sequence (P35438 827-938 partner): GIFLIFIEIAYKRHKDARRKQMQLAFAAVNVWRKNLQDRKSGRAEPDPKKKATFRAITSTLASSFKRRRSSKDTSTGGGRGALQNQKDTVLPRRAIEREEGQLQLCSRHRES

The term Ki denotes a dissociation constant, usually derived from enzyme kinetics or from competition with a known ligand. Read a high Ki as lower affinity. With `COC(=O)[C@]1(c2ccc(C)cc2)C[C@@H]1CN1CCC(O)(c2ccccc2)CC1` (racemic) [PPCC], affinity at sigma 1 receptor (σ1R) [1] was put at a Ki of 0.06 nM.
Take `O=C(NC1CCN(Cc2ccccc2)CC1)c1ccc(I)cc1` [4-IBP]: the “in vitro pull-down: reversal of progesterone/CBD-induced disruption of recombina” value at sigma 1 receptor (σ1R) [2] was “PPCC, PRE084 and 4-IBP did not alter σ1R-NR1 associations but reduced the capacity of progesterone and CBD”.
Usually EC50 stands for the concentration that produces a half-maximal response. In the case of `CN1CCN(CCc2ccc(Cl)c(Cl)c2)CC1` [BD1063], at sigma 1 receptor (σ1R) [3], the EC50 was ~0.03 nM.
Consider `O=C(OCCN1CCOCC1)C1(c2ccccc2)CCCCC1` [PRE084], for which the “in vitro pull-down: reversal of progesterone/CBD-induced disruption of recombina” value on sigma 1 receptor (σ1R) [2] is “PPCC, PRE084 and 4-IBP did not alter σ1R-NR1 associations but reduced the capacity of progesterone and CBD”.
`CC(=O)[C@H]1CC[C@H]2[C@@H]3CCC4=CC(=O)CC[C@]4(C)[C@H]3CC[C@]12C` [Progesterone]: the EC50 at sigma 1 receptor (σ1R) [3] was ~0.03 nM.
The same measure, in the same setting: the result for `C=C(C)[C@@H]1CCC(C)=C[C@H]1c1c(O)cc(CCCCC)cc1O` [CBD, Cannabidiol] reads ~0.1 nM.
